Reference: patent US20250123282A1, “METHODS FOR EVALUATION AND TREATMENT OF TYROSINE KINASE INHIBITOR (TKI)-RESISTANT ACUTE MYELOID LEUKEMIA” (LOMA LINDA UNIVERSITY, priority 2021, published 2025)

Legend:
primary AML BMMNC = assay: Ex vivo combination treatment of primary AML BMMNC (FACS, imaging, qPCR); assay type: cell-based, human; conditions: primary BMMNC ex vivo (Patient #2 and #3); 80 nM GILT, 50 uM CXCR2-I
Method: (§1) Whether targeting the MIF-CXCR2 signaling pathway would effectively treat AML blasts were investigated. First, the combination of GILT with ribosomal protein S19 (RPS19) on MV4-11 blasts was tested in vitro. RPS19, a MIF inhibitor, has been reported to suppress cisplatin-activated MIF-CD74-NFκB signaling pathway in acute kidney injury. […] The combination of 80 nM GILT with 50 uM SB225002, a CXCR2-inhibitor (CXCR2-I) on MV4-11 blasts in vitro were examined. […] The anti-leukemic effect of combining GILT with CXCR2-I on primary BMMNC ex vivo were examined. […] There may be alternative cytokine pathways compensating for the defect of MIF-CXCR2 pathways.
The combination of 80 nM GILT and 50 uM BAY11-7821 (a NFκB-I) was tested as a novel therapeutic approach for AML.
Next, the anti-leukemic effect of the combination was examined on primary BMMNC from refractory AML patients (Patient #7, Table 4).
Human Samples. AML bone marrow (BM) mononuclear cells (BMMNC) (Patients #1-7, Table 4) were obtained from the City of Hope National Medical Center (COHNMC). All donor patients signed an informed consent form. Sample acquisition was approved by the Institutional Review Boards at the LLUMC and the COHNMC in accordance with an assurance filed with and approved by the Department of Health and Human Services, and it met all requirements of the Declaration of Helsinki.
(§2) For MIF in vitro experiments, different doses of MIF were added to 1 ml of 1×10^6 MV4-11 cells or RAW264.7 cells for each experimental group in 24-well plates. Two days after the one dose treatment, cells were then collected for either analyses by FACS and qPCR. As combination agents to treat blasts in vitro or ex vivo, one dose of 80 nM GILT with one dose of different inhibitors were added to 1 ml of 1×10^6 MV4-11 cells or 1 ml of 0.5-1×10^6 primary AML BMMNC for each experimental group in 24-well plates. Dose-dependent experiments of CXCR2 inhibitor and NFκB inhibitor with or without 80 nM GILT were performed. […] Three days after the one dose treatment, cells were then collected for either analyses by FACS and qPCR.
(§3) Flow Cytometry (FACS). Cells were harvested and examined for the expression of cell surface biomarkers (CD) and intracellular proteins by multichromatic FACS as previously described. About 1×10^4˜10^6 cells in 100 μl FACS buffer (PBS containing 1% FBS and 0.05% sodium azide) were stained with various fluorescence-conjugated antibodies specific for the desired cell surface proteins at 4° C. for 30 min. The surface-stained cells were then fixed and permeabilized using the appropriate reagents (e.g. the BD Pharmingen Cytofix/Cytoperm buffer) and stained with different fluorescence-conjugated antibodies specific for the desired intracellular proteins at 4° C. for 2 hours in the permeabilizing buffer (e.g. the BD Perm/Wash buffer). Concentrations of the Abs were used per the manufacturers' recommendations. Finally, the cells were washed twice in the permeabilizing buffer and twice in the FACS buffer before being analyzed on the BD FACSAria II. Data was analyzed using the FlowJo software (Tree Star Inc., Ashland, OR).
RNA Isolation and Real-Time Polymerase Chain Reaction (qPCR) analysis. MV4-11 and MOLM-14 cells were cultured with the presence of TKI drugs for 72 hours or re-plated 28 days after the treatment of TKI drugs. Cells were isolated for RNA isolation and qPCR analysis as previously described. Total RNA was isolated using the RNeasy Micro Kit (Qiagen) according to the manufacturer's instruction. First-strand cDNA was synthesized using the SuperScript III Reverse Transcriptase (Invitrogen; Life Technologies). With an Applied Biosystems 7900HT Real-Time PCR machine, qPCR was performed and analyzed using known primers for the specific markers. The PCR conditions were 10 minutes at 95° C. followed by 40 cycles of 10 seconds at 95° C. and 15 seconds at 60° C. The relative expression level of a gene was determined using the ΔΔCt method and normalized to GAPDH.

MV4-11 blasts = assay: GILT combined with MIF inhibitor or CXCR2 inhibitor on MV4-11 blasts in vitro (FACS); assay type: cell-based, human
Method: as §1, §2, §3

MV4-11 cells = assay: FACS time course of CD44+pBAD+ and Ki67+CD33+CD44+ populations in TKI-treated MV4-11; assay type: cell-based, human
Text: To follow the cell fate of TKI-treated MV4-11 and MOLM-14, culturing of blasts were continued by performing medium change every 2-3 days. […] The BAD protein is a pro-apoptotic member of the BCL-2 gene family, which is involved in initiating apoptosis. Dephosphorylated BAD is pro-apoptotic by binding BCL-2 and inactivating BCL-2, while phosphorylated BAD (pBAD) is anti-apoptotic by leaving BCL-2 free to inhibit BAX-triggered apoptosis.
Small Molecular Inhibitors and in vitro & ex vivo Treatment. […] The dose of 80 nM for the four TKIs was selected based on their dose-dependent cytotoxicity in previous reports. […] Both GILT and QUIZ were reported to start to suppress the tumorigenic clustering and c-Kit at the dose of 80 nM. […] The combination of 5 μM 5-Azacitidine (AZA) and 80 nM 1α,25-Dihydroxyvitamin D3 (VD3) was added to the experimental group similar to the previous report. As combination agents to treat blasts in vitro, one dose of 80 nM GILT with one dose of either 100 nM Venetoclax (BCL2 inhibitor), 10 μM (R)-Lisofylline (STAT4 inhibitor), 100 nM AZD1208 (PIM inhibitor), 500 nM PF-06826647 (TYK2 inhibitor), or 500 nM AT9283 (JAK2/3 inhibitor) were added to 1 ml of 1×10^6 cells for each experimental group in 24 well plates. Three days after the one dose treatment, cells were then collected for either analyses by FACS and qPCR, or re-plated into 24 well plates for continued culture. At different time points, re-plated cells were collected for analyses by FACS and qPCR. Medium change was performed every 2-3 days.
as §3

MV4-11 = conditions: 100 nM; cited from earlier work
[1] = MV4-11, 10 days after TKI treatment
[2] = MV4-11, 20 days after TKI treatment
[3] = MV4-11, 28 days after TKI treatment

SMILES	percentage of Ki67+CD13+ blasts (primary AML BMMNC) [%]	percentage of viable CD33+CD13+ primary blasts (primary AML BMMNC) [%]	percentage of Ki67+CD44+ blasts (MV4-11 blasts; MV4-11, 80 nM GILT, 50 uM SB225002, 3 days) [%]	most effective dose on MV4-11 based on the FACS analyses (MV4-11 blasts; dose-dependent experiments with or without 80 nM GILT) [µM]	population of viable CD44+pBAD+ cells (MV4-11 cells; [1]) [%]	population of viable Ki67+CD33+CD44+ cells (MV4-11 cells; [1]) [%]	population of viable CD44+pBAD+ cells (MV4-11 cells; [2]) [%]	population of viable Ki67+CD33+CD44+ cells (MV4-11 cells; [2]) [%]	population of viable CD44+pBAD+ cells (MV4-11 cells; [3]) [%]	population of viable Ki67+CD33+CD44+ cells (MV4-11 cells; [3]) [%]	reduction of viable MV4-11 (MV4-11) [%]
O=C(Nc1ccc([N+](=O)[O-])cc1O)Nc1ccccc1Br [CXCR2-I, SB225002]	14.3	3.11	5.7	50	–	–	–	–	–	–	–
CO[C@@H]1[C@H](N(C)C(=O)c2ccccc2)C[C@H]2O[C@]1(C)n1c3ccccc3c3c4c(c5c6ccccc6n2c5c31)C(=O)NC4 [MIDO, Midostaurin]	–	–	–	–	0.2	2.54	0.43	1.41	1.23	2.54	60
